Source: patent US20250170147A1, “NEUROACTIVE STEROIDS FOR TREATMENT OF GASTROINTESTINAL DISEASES OR CONDITIONS” (Sage Therapeutics, Inc., priority 2022, published 2025)
“Also recorded” adds a separate entry of the source. Marks after values point to notes of the source that are not given here.

What was measured:
[1] = system: patients with major depressive disorder; conditions: meta-analysis, cited from earlier work; for rates of gastrointestinal adverse reactions compared to placebo: 15 most commonly used antidepressants in MDD; for tolerability on the gastrointestinal tract among antidepressants: patients with MDD
adults with MDD [2] = experiment: Study NCT04476030: treatment-emergent adverse events (safety set); type: in vivo, human; conditions: for tolerability: zuranolone 50 mg once daily 14 days co-initiated with SOC ADT
Experimental: (§1) A randomized, double-blind, parallel-group, active/placebo-controlled study (NCT04476030) in participants with major depressive disorder (MDD) was conducted. The study evaluated the efficacy and safety of zuranolone 50 mg co-initiated with standard-of-care (SOC) antidepressant therapies (ADTs) (zuranolone+ADT) vs placebo co-initiated with SOC ADT (placebo+ADT) in adults with MDD. Patients were randomized 1:1 to once-daily, blinded zuranolone+ADT or placebo+ADT for 14 days then continued open-label SOC ADT for 28 more days.
An AE could therefore be any unfavorable and unintended sign (including an abnormal laboratory finding), symptom or disease temporally associated with the use of a medicinal (investigational) product whether or not related to the medicinal (investigational) product. In clinical studies, an AE could include an undesirable medical condition occurring at any time, including baseline or washout periods, even if no study treatment had been administered.
A treatment emergent adverse event (TEAE) was defined as an AE with onset after the start of investigational product (IP), or any worsening of a pre-existing medical condition/AE with onset after the start of IP and throughout the study. The term IP included any Sage IP, a comparator, or a placebo administered in a clinical study.
The investigator made the determination of relationship to the IP for each AE (not related, related). The following definitions should have been considered when evaluating the relationship of AEs and SAEs to the IP.

adults with MDD [3] = experiment: Study NCT04476030: withdrawal symptoms by Physician Withdrawal Checklist (PWC-20); type: in vivo, human
Experimental: as §1
(§2) The proportion of patients who had suicidal ideation at any post baseline visit from Day 3 through Day 42 ranged from 4.8% to 11.7% in the zuranolone+ADT group and from 6.0% to 12.4% in the placebo+ADT group. No patients who received placebo+ADT experienced suicidal behavior.

adults with MDD [4] = experiment: Study NCT04476030: suicidal ideation/behavior by C-SSRS; type: in vivo, human; conditions: compared to baseline
Experimental: as §1, §2

[5] = clinical trials; meta-analysis; cited from earlier work
[6] = ADT continuation period, of 212
[7] = double blinded treatment period
[8] = double blinded treatment period, of 212
[9] = safety set n=212, listed as zuranolone+ADT
[10] = zuranolone 50 mg + ADT, safety set n=212, whole study

CC(NC(C)(C)C)C(=O)c1cccc(Cl)c1 (stereo not shown) [bupropion]
rates of gastrointestinal adverse reactions compared to placebo [1]: higher rates

zuranolone [Zuranolone + ADT]
Sexual Dysfunction TEAE, incidence (adults with MDD [2]; ADT continuation period): 0.9%
Sleep Disorders TEAE, incidence (adults with MDD [2]; ADT continuation period): 3.8%
TEAEs during the ADT continuation period, incidence (adults with MDD [2]; ADT continuation period): 31.6%
Sexual Dysfunction TEAE, number of patients (adults with MDD [2]; [6]): 2
Sleep Disorders TEAE, number of patients (adults with MDD [2]; [6]): 8
TEAEs during the ADT continuation period, number of patients (adults with MDD [2]; [6]): 67
incidence of gastrointestinal AEs (e.g., nausea, diarrhea) vs placebo+ADT (adults with MDD [2]; comparison with placebo+ADT): lower incidence
Sexual Dysfunction TEAE, incidence (adults with MDD [2]; [7]): 3.8%
Sleep Disorders TEAE, incidence (adults with MDD [2]; [7]): 9.9%
Sexual Dysfunction TEAE, number of patients (adults with MDD [2]; [8]): 8
Sleep Disorders TEAE, number of patients (adults with MDD [2]; [8]): 21
TEAEs during the double-blind treatment period, incidence (adults with MDD [2]; double-blind treatment period): 68.4%
TEAEs during the double-blind treatment period, number of patients (adults with MDD [2]; double-blind treatment period, of 212): 145
Decreased Appetite TEAE, incidence (adults with MDD [2]; safety set n=212): (5.7%)
Decreased Appetite TEAE, number of patients (adults with MDD [2]; safety set n=212): 12
Diarrhea TEAE, incidence (adults with MDD [2]; safety set n=212): (6.1%)
Diarrhea TEAE, number of patients (adults with MDD [2]; safety set n=212): 13
Dizziness TEAE, number of patients (adults with MDD [2]; safety set n=212): 28
Dose reduction due to TEAE, incidence (adults with MDD [2]; safety set n=212): (9.4%)
Dose reduction due to TEAE, number of patients (adults with MDD [2]; safety set n=212): 20
Dry Mouth TEAE, incidence (adults with MDD [2]; safety set n=212): (9.4%)
Dry Mouth TEAE, number of patients (adults with MDD [2]; safety set n=212): 20
Fatigue TEAE, incidence (adults with MDD [2]; safety set n=212): (8.5%)
Fatigue TEAE, number of patients (adults with MDD [2]; safety set n=212): 18
Headache TEAE, number of patients (adults with MDD [2]; safety set n=212): 25
Insomnia TEAE, incidence (adults with MDD [2]; safety set n=212): (9.9%)
Insomnia TEAE, number of patients (adults with MDD [2]; safety set n=212): 21
Nausea TEAE, number of patients (adults with MDD [2]; safety set n=212): 19
Sedation TEAE, incidence (adults with MDD [2]; safety set n=212): (5.7%)
Sedation TEAE, number of patients (adults with MDD [2]; safety set n=212): 12
Serious AEs, incidence (adults with MDD [2]; safety set n=212): (0.9%)^c
Serious AEs, number of patients (adults with MDD [2]; safety set n=212): 2
Somnolence TEAE, number of patients (adults with MDD [2]; safety set n=212): 39
Study withdrawal due to TEAE, incidence (adults with MDD [2]; safety set n=212): (5.2%)
Study withdrawal due to TEAE, number of patients (adults with MDD [2]; safety set n=212): 11
TEAE maximum severity Mild, incidence (adults with MDD [2]; safety set n=212): (35.8%)
TEAE maximum severity Mild, number of patients (adults with MDD [2]; safety set n=212): 76
TEAE maximum severity Moderate, incidence (adults with MDD [2]; safety set n=212): (34.4%)
TEAE maximum severity Moderate, number of patients (adults with MDD [2]; safety set n=212): 73
TEAE maximum severity Severe, incidence (adults with MDD [2]; safety set n=212): (3.8%)
TEAE maximum severity Severe, number of patients (adults with MDD [2]; safety set n=212): 8
Treatment discontinuation due to TEAE, incidence (adults with MDD [2]; safety set n=212): (6.6%)
Treatment discontinuation due to TEAE, number of patients (adults with MDD [2]; safety set n=212): 14
Tremor TEAE, incidence (adults with MDD [2]; safety set n=212): (5.2%)
Tremor TEAE, number of patients (adults with MDD [2]; safety set n=212): 11
Dizziness TEAE, incidence (adults with MDD [2]; [9]): 13.2%
Headache TEAE, incidence (adults with MDD [2]; [9]): 14.7%
Nausea TEAE, incidence (adults with MDD [2]; [9]): 9.0%
Serious AEs, incidence (adults with MDD [2]; [9]): 0.9%
Serious AEs, number of patients (adults with MDD [2]; [9]): Two
Somnolence TEAE, incidence (adults with MDD [2]; [9]): 18.4%
Gastrointestinal disorder TEAE, incidence (adults with MDD [2]; whole study): 29.7%
Sexual Dysfunction TEAE, incidence (adults with MDD [2]; whole study): 4.7%
Sleep Disorders TEAE, incidence (adults with MDD [2]; whole study): 12.7%
Gastrointestinal disorder TEAE, number of patients (adults with MDD [2]; whole study, of 212): 63
Sexual Dysfunction TEAE, number of patients (adults with MDD [2]; whole study, of 212): 10
Sleep Disorders TEAE, number of patients (adults with MDD [2]; whole study, of 212): 27
Any TEAE, incidence (adults with MDD [2]; [10]): (74.1%)
Any TEAE, number of patients (adults with MDD [2]; [10]): 157
Any TEAE, incidence (adults with MDD [2]; zuranolone 50 mg + ADT, safety set n=212, whole study, listed as zuranolone+ADT): 74.1%
tolerability (adults with MDD [2]): generally well-tolerated
tolerability (adults with MDD [2]; listed as zuranolone co-initiated with an SOC ADT): generally well tolerated
mean decrease from baseline in PWC-20 total score (adults with MDD [3]; Day 18): −0.6
mean decrease from baseline in PWC-20 total score (adults with MDD [3]; Day 21): −0.8
withdrawal symptoms (PWC-20) (adults with MDD [3]; after discontinuation): No increases from baseline; also recorded: No signals for an evidence of withdrawal symptoms
suicidal ideation/behavior signals vs baseline (C-SSRS) (adults with MDD [4]): No increases from baseline; also recorded: No signals for an increased suicidal ideation or suicidal behavior

Fc1ccc([C@@H]2CCNC[C@H]2COc2ccc3c(c2)OCO3)cc1 [paroxetine]
rates of gastrointestinal adverse reactions compared to placebo [1]: higher rates

CN(C)CC(c1ccc(O)cc1)C1(O)CCCCC1 (stereo not shown) [desvenlafaxine]
rates of gastrointestinal adverse reactions compared to placebo [1]: higher rates

CN(C)CCCC1(c2ccc(F)cc2)OCc2cc(C#N)ccc21 (stereo not shown) [citalopram]
rates of gastrointestinal adverse reactions compared to placebo [1]: higher rates

CCOc1ccccc1OC(c1ccccc1)C1CNCCO1 (stereo not shown) [reboxetine]
rates of gastrointestinal adverse reactions compared to placebo [1]: higher rates

CNCCC(Oc1ccc(C(F)(F)F)cc1)c1ccccc1 (stereo not shown) [fluoxetine]
rates of gastrointestinal adverse reactions compared to placebo [1]: higher rates

CCN(CC)C(=O)[C@@]1(c2ccccc2)C[C@H]1CN [levomilnacipran]
rates of gastrointestinal adverse reactions compared to placebo [1]: higher rates

Cc1ccc(Sc2ccccc2N2CCNCC2)c(C)c1 [vortioxetine]
rates of gastrointestinal adverse reactions compared to placebo [1]: higher rates

CN[C@H]1CC[C@@H](c2ccc(Cl)c(Cl)c2)c2ccccc21 [sertraline]
rates of gastrointestinal adverse reactions compared to placebo [1]: higher rates
tolerability on the gastrointestinal tract among antidepressants [1]: least tolerated
incidence of diarrhea compared to other SSRIs and venlafaxine [5]: higher incidence of diarrhea

CN(C)CCC[C@@]1(c2ccc(F)cc2)OCc2cc(C#N)ccc21 [escitalopram]
rates of gastrointestinal adverse reactions compared to placebo [1]: higher rates
tolerability on the gastrointestinal tract among antidepressants [1]: least tolerated

COCCCC/C(=N\OCCN)c1ccc(C(F)(F)F)cc1 [fluvoxamine]
rates of gastrointestinal adverse reactions compared to placebo [1]: higher rates

CNCC[C@H](Oc1cccc2ccccc12)c1cccs1 [duloxetine]
rates of gastrointestinal adverse reactions compared to placebo [1]: higher rates

COc1ccc2cccc(CCNC(C)=O)c2c1 [agomelatine]
rates of gastrointestinal adverse reactions compared to placebo [1]: higher rates

CN1CCN2c3ncccc3Cc3ccccc3C2C1 (stereo not shown) [mirtazapine]
rates of gastrointestinal adverse reactions compared to placebo [1]: higher rates

COc1ccc(C(CN(C)C)C2(O)CCCCC2)cc1 (stereo not shown) [venlafaxine]
rates of gastrointestinal adverse reactions compared to placebo [1]: higher rates
rates of nausea and vomiting compared to SSRIs and duloxetine [5]: higher rates of nausea and vomiting
